Assay results: publication PMC11507377, “Intricate Evolution of Multifunctional Lipoxygenase in Red Algae” (International Journal of Molecular Sciences, 2024)

Tests used:
[1] = target: T1, SvLOX (Shewanella violacea, UniProt D4ZL63); test: HPLC-MS and GC-MS of products; assay type: biochemical; settings: 100 μM ARA, 0.1 mg/mL enzyme, pH 8.0, 20 °C, 1 min (HPLC-MS) or 15 min (GC-MS)
T1 construct: gene SVI_2441; SRPBCC domain + LOX domain
T1 sequence (D4ZL63 1-839): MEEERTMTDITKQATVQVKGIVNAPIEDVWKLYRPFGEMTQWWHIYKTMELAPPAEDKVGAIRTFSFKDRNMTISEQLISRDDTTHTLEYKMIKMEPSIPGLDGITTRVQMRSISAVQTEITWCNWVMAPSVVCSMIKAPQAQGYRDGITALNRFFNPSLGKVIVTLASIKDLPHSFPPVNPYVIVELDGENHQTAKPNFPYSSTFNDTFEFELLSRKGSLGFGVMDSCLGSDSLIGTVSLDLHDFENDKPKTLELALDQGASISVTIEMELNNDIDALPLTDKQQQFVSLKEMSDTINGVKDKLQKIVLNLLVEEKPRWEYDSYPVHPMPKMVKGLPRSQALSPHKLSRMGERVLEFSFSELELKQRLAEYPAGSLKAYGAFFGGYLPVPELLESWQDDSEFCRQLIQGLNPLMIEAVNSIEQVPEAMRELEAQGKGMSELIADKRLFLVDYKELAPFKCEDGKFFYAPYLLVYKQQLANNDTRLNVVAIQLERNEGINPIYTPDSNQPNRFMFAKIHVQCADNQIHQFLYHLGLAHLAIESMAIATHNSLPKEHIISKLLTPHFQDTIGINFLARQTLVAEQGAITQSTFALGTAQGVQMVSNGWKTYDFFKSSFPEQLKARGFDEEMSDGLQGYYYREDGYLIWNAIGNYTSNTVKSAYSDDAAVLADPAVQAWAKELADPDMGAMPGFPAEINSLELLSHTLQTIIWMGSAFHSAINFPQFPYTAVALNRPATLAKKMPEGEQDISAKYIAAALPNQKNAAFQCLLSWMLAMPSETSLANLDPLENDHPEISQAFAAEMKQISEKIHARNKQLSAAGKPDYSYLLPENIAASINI

[2] = target: T2, PhLOX (Pyropia haitanensis, UniProt J7JU42, F826L); settings: 100 μM ALA, 0.1 mg/mL enzyme, pH 8.0, 20 °C, 15 min
T2 construct: gene lox
T2 sequence (J7JU42 entry or part of it F826L): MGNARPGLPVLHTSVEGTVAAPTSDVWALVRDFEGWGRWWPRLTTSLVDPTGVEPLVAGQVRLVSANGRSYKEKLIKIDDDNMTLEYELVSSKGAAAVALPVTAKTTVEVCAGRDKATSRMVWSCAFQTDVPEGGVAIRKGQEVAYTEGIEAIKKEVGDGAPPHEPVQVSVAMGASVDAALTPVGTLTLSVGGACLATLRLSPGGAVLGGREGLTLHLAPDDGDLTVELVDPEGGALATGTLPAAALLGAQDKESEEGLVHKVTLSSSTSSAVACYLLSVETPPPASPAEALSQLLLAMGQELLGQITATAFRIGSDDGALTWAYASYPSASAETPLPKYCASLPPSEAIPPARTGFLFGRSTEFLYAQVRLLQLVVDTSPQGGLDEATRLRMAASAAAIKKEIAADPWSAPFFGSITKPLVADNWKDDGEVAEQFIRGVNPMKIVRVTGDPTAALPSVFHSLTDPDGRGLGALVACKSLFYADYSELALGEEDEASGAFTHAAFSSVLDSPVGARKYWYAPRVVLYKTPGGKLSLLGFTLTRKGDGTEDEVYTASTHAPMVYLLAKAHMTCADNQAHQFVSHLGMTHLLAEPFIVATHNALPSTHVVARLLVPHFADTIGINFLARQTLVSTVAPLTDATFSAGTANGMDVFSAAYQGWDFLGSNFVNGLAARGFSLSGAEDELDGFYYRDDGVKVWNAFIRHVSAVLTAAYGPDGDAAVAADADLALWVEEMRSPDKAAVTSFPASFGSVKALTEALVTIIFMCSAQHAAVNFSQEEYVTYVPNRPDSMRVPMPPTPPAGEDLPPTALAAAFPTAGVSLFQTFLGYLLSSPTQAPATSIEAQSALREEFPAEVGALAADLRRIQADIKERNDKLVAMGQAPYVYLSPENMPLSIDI

[3] = target: T3, PhLOX (Pyropia haitanensis, UniProt J7JU42, F642V/F826L); settings: 100 μM ALA, 0.1 mg/mL enzyme, pH 8.0, 20 °C, 15 min
T3 construct: gene lox
T3 sequence (J7JU42 entry or part of it F642V/F826L): as the sequence (J7JU42 entry or part of it F826L) above, with F642V counted along it

**Q.** How did the “HPLC-MS and GC-MS of products” value [1] turn out when `CCCCC/C=C\C/C=C\C/C=C\C/C=C\CCCC(=O)O` [arachidonic acid] was run?
**A.** the incubation of ARA with SvLOX gave 12-hydroperoxy/hydroxy eicosatetraenoic acids

**Q.** For `CC/C=C\C/C=C\C/C=C\CCCCCCCC(=O)O` [α-linolenic acid], which HPLC-MS of products [2] is on record?
**A.** (ALA) was incubated with the F826L mutant of PhLOX, much more 9-HpOTE was formed

**Q.** And the HPLC-MS of products [3]?
**A.** When ALA was incubated with the F642V-F826L double mutant of PhLOX, 13-HpOTE was the dominating product
